The Biogen ADME set (Fang et al. 2023)
Values after ≈ are worked out from the molar mass of the structure shown.

Conditions: for aqueous solubility: pH 6.8

| aqueous solubility [µg/mL] | MDR1-MDCK efflux ratio | intrinsic clearance, human liver microsomes [mL/min/kg] | intrinsic clearance, rat liver microsomes [mL/min/kg] | fraction unbound, human plasma | fraction unbound, rat plasma | Compound |
| --- | --- | --- | --- | --- | --- | --- |
| 0.66 (≈ 2.35 µM) |  |  |  |  |  | CC1=NC(Nc2nc(C)c3ccccc3n2)=NC(C)(C)C1 |
| 0.28 (≈ 1.08 µM) | 0.472 |  |  |  |  | CN(C(=O)OC(C)(C)C)c1ccc2ccccc2n1 |
|  |  | 88.3 | 65.1 |  |  | CC(C)c1cc(C(=O)Nc2ncccc2Cl)no1 |
| 50 (≈ 159 µM) | 0.793 | 11.6 | 449 |  |  | O=C(NCC1(c2ccc(F)cc2)CCOCC1)c1ccccn1 |
|  | 0.738 | ≤ 4.74 | 55.6 |  |  | O=c1n(CCn2ccnc2)nnn1-c1cccs1 |
| 26.9 (≈ 129 µM) |  | ≤ 4.74 | ≤ 10.7 |  |  | O=C(O)c1cc(Cl)cc2cccnc12 |
|  | 23.4 | 64.5 | 647 |  |  | CCc1c(C)nn(CCNC(=O)CCc2cnccn2)c1C |
| 30.6 (≈ 148 µM) |  |  |  |  |  | CNc1cc(CC2CCNCC2)ncn1 |
| 60.8 (≈ 216 µM) | 0.961 | 10.2 | 40.3 |  |  | O=C(Nc1ccccc1-n1ccnc1)c1ccc(F)cc1 |
| 29.2 (≈ 102 µM) | 0.661 | 234 | 2160 |  |  | CC(C)c1nc(CCn2ccnc2-c2ccoc2)cs1 |
| 0.17 (≈ 0.325 µM) | 34.9 |  |  |  |  | C=CC(=O)N1CCC[C@@H](n2nc(-c3cccc(C(=O)Nc4ccc(C(C)C)c(C)c4)c3)c3c(N)ncnc32)C1 |
| 50.4 (≈ 219 µM) | 0.576 | 25.7 | 74.9 |  |  | Cc1cc(C(=O)NCC2CC2)n2nccc2n1 |
| 33.2 (≈ 97 µM) | 5.09 | 27.5 | 115 |  |  | C=CCn1cnc2c(Cl)cc(-c3ccc(C(=O)NC4CC4)o3)cc21 |
| 8.4 (≈ 23.2 µM) | 0.484 | 182 | 985 |  |  | COc1ccc2nc(C)c(C(=O)Nc3ccccc3N3CCCC3)cc2c1 |
| 41.1 (≈ 182 µM) |  | ≤ 4.74 | 36.6 |  |  | Nc1ccnn1Cc1ccc(Cl)c(F)c1 |
| 1.92 (≈ 5.43 µM) |  |  |  |  |  | Cn1cc(-c2nc(C(=O)Nc3cccnc3-n3cncn3)cs2)cn1 |
| 34.4 (≈ 105 µM) | 6.32 | 13.9 | 407 |  |  | Cc1cc2occ(CC(=O)NC3CCN(C)CC3)c2cc1C(C)C |
| 1.78 (≈ 6.28 µM) | 1.55 | 9.85 | 176 |  |  | CC(C)(C)c1cc(NC(=O)c2cccc3cn[nH]c23)[nH]n1 |
| 0.86 (≈ 2.71 µM) | 0.894 |  |  |  |  | Cc1cc(NC(=O)Cn2nc(C3CC3)ccc2=O)ccc1Cl |
| 35.3 (≈ 134 µM) | 1.39 | ≤ 4.74 | 34.4 |  |  | CCCC(=O)Nc1cnc(N2CCN(C)CC2)nc1 |
| 71 (≈ 225 µM) | 0.674 | 11.2 | 73.6 |  |  | COc1cc(CN2CCC(c3ccnc(C)n3)CC2)ccc1F |

| aqueous solubility [µg/mL] | MDR1-MDCK efflux ratio | intrinsic clearance, human liver microsomes [mL/min/kg] | intrinsic clearance, rat liver microsomes [mL/min/kg] | fraction unbound, human plasma | fraction unbound, rat plasma | Compound |
| --- | --- | --- | --- | --- | --- | --- |
| 46.6 (≈ 151 µM) | 0.774 | 84.5 | 309 |  |  | Cc1ncc2c(n1)CN(CCCc1nc3ccccc3o1)CC2 |
| 52.1 (≈ 149 µM) |  | ≤ 4.74 | ≤ 10.7 |  |  | CCCn1c(=O)[nH]c2nc(-c3ccc(S(=O)(=O)O)cc3)[nH]c2c1=O |
| 60.2 (≈ 264 µM) | 4.41 | ≤ 4.74 | ≤ 10.7 |  |  | CCN(CC)C(=O)N1CCC(C(=O)O)CC1 |
|  |  | 6.33 | 14.2 |  |  | CC(C)[C@H](O)C(=O)N[C@@H](C)C(=O)N[C@@H]1C(=O)N(C)CCc2ccccc21 |
| 72.2 (≈ 240 µM) | 5.92 | ≤ 4.74 | ≤ 10.7 |  |  | Cc1oc(C)c(C(=O)N2CCNC(=O)C2)c1Br |
|  | 2.53 | 14.3 | 173 | 0.0006 | 0.00206 | Cc1c[nH]c2nccc(Oc3c(F)cc(Nc4cc(Cl)nc(N)n4)cc3F)c12 |
| 34.1 (≈ 133 µM) | 0.616 | 8.32 | 50.3 |  |  | O=C(NCC1CCC1)c1ccc(-n2ccnc2)nn1 |
| 66.4 (≈ 188 µM) |  |  |  |  |  | CC(=O)N[C@H]1/C(=N\OC(=O)Nc2ccccc2)O[C@H](CO)[C@H](O)[C@@H]1O |
|  | 7.73 | 7.32 | 90.7 |  |  | Cc1ncc(-c2ccccn2)c(CCNC(=O)C2CCCC2)n1 |
| 70.6 (≈ 170 µM) | 7.02 | 108 | 631 |  |  | COc1cccc(CN2CCC(Cc3ccc(-c4cccnc4)cc3)(C(N)=O)CC2)c1 |
|  |  | 123 | 2600 |  |  | CN1C(=O)c2ccc(C(=O)N(CC3CCCCC3)C3CC3)cc2C1=O |
|  | 9.93 |  |  |  |  | O=C1CCCN1c1ccc(S(=O)(=O)Nc2cccc(-c3nnc4n3CCC4)c2)cc1 |
|  | 0.653 | 246 | 3180 |  |  | CN(CCSc1ccc2nnc(C(F)F)n2n1)Cc1ccccc1 |
| 38.2 (≈ 188 µM) | 0.67 | ≤ 4.74 | 15.4 |  |  | Nc1cnc(Cc2ccc(F)cc2)nc1 |
|  | 0.702 | 13.3 | 1600 |  |  | CN(Cc1cnc2ccccc2n1)S(=O)(=O)N1CCCC1 |
|  |  | ≤ 4.74 | 51.6 |  |  | Cc1cc(OCc2ccnc(Cl)c2)nnc1C |
| 32.5 (≈ 139 µM) |  | ≤ 4.74 | ≤ 10.7 |  |  | Cc1nn(C)c2nc(C(C)C)cc(C(=O)O)c12 |
| 30.6 (≈ 153 µM) |  |  |  |  |  | N#CCc1ccc(NC(=O)C2CC2)cc1 |
| 41 (≈ 160 µM) |  | ≤ 4.74 | ≤ 10.7 |  |  | Fc1ccc(-c2cc(C3CCNCC3)ccn2)cc1 |
| 3.72 (≈ 13.5 µM) |  | 24.4 | 850 |  |  | N#Cc1cccnc1Nc1cnn(Cc2ccccc2)c1 |
| 94.8 (≈ 284 µM) | 10.4 | ≤ 4.74 | 14.1 |  |  | O=C(c1ccc(F)cc1)N1CCN(CC(=O)N2CCCC2=O)CC1 |

| aqueous solubility [µg/mL] | MDR1-MDCK efflux ratio | intrinsic clearance, human liver microsomes [mL/min/kg] | intrinsic clearance, rat liver microsomes [mL/min/kg] | fraction unbound, human plasma | fraction unbound, rat plasma | Compound |
| --- | --- | --- | --- | --- | --- | --- |
| 44.6 (≈ 181 µM) |  |  |  |  |  | Cc1ccc(F)c(N(C#N)Cc2nnc(C)o2)c1 |
| 52.5 (≈ 146 µM) | 56.1 | 112 | 1180 |  |  | O=C(CN1CCc2ccccc21)N1CCC(c2nc3ccccc3[nH]2)CC1 |
|  | 0.579 | 12.4 | 1020 |  |  | CC(=O)N1CCC2(C=Cc3cc(C)c(C)cc3O2)CC1 |
| 27.7 (≈ 124 µM) | 4.21 | ≤ 4.74 | ≤ 10.7 |  |  | Cc1nc(NCc2scnc2C)n(C)n1 |
| 1.17 (≈ 4.46 µM) | 0.126 | 91.8 | 209 |  |  | Cc1cccc(NC(=O)c2ccc3ccccc3c2)n1 |
| 65.5 (≈ 155 µM) | 36.3 | 59.6 | 956 |  |  | Cc1cc(Nc2ccccn2)cc(C2CCCN(CC(=O)Nc3ncc(C)s3)C2)n1 (stereo not given) |
| 39.4 (≈ 120 µM) | 92.4 | ≤ 4.74 | 44.5 |  |  | CCCN(C)C(=O)Nc1cccc(-c2nnc3n2CCCCC3)c1 |
|  |  | 6.42 | 15.5 |  |  | Cc1cc(NC(=O)c2ccc(NC3CC3)nc2)[nH]n1 |
| 48.6 (≈ 163 µM) | 4.51 | 68.5 | 698 |  |  | CCN(CC)C(=O)N1CCCN(C(=O)N(CC)CC)CC1 |
| 47.4 (≈ 140 µM) | 2.14 | 29.6 | 357 |  |  | O=c1[nH]c2ccccc2n1C1CCN(CCOc2ccccc2)CC1 |
| 1.15 (≈ 3.22 µM) | 1.13 | ≤ 4.74 | ≤ 10.7 |  |  | FC(F)(F)c1nc(Nc2ccc(-n3cnnn3)cc2)c2ccccc2n1 |
| 104 (≈ 506 µM) |  |  |  |  |  | NCC(=O)Nc1ccc2[nH]c(=O)[nH]c2c1 |
| 0.83 (≈ 2.13 µM) |  |  |  |  |  | CCOC(=O)c1ccc(S(=O)(=O)N2CCc3cc(C(=O)OC)ccc32)cc1 |
| 24.9 (≈ 77.1 µM) | 2.29 | 70.4 | 1100 |  |  | COCc1cc(-c2nc(CCc3ccccc3)n[nH]2)ccc1OC |
| 29.7 (≈ 119 µM) | 0.421 | 38.2 | 557 |  |  | Cc1cccc(C(=O)NCC#Cc2ccccc2)n1 |
| 43.2 (≈ 131 µM) | 4.76 | 23.3 | 131 |  |  | CN1CCc2ncnc(N3CCCN(c4nccs4)CC3)c2C1 |
|  |  | 8.83 | 105 |  |  | Cn1ccc(C(=O)NCCc2cc3nc(-c4ccncc4)ccn3n2)n1 |
| 45 (≈ 137 µM) | 0.847 | 18.5 | 506 |  |  | Cc1nn(C)c2nc(N3CCN(C)C[C@@H]3c3ccccc3)sc12 |
|  | 1.35 | 25 | 1310 |  |  | c1cc(CNc2ncc(-c3cnccn3)c(C3CC3)n2)ccn1 |
|  | 0.579 | 72.8 | 931 |  |  | Cc1ccnc(-n2nccc2NC(=O)NC2(C)CCC2)c1 |
